Experimental data from article PMC4582037, “Binding interaction of a novel fluorophore with serum albumins: steady state fluorescence perturbation and molecular modeling analysis” (SpringerPlus, 2015).

Columns and labels:
[1] = target: T1, bovine serum albumin (BSA) (Bos taurus, UniProt P02769); experiment: fluorescence anisotropy titration of compound […]) with protein, Langmuir isotherm fit; type: binding
T1 construct: gene ALB

[2] = target: T2, human serum albumin (HSA) (Homo sapiens, UniProt P02768); experiment: as above; type: binding
T2 construct: gene ALB
T2 sequence (P02768 25-609): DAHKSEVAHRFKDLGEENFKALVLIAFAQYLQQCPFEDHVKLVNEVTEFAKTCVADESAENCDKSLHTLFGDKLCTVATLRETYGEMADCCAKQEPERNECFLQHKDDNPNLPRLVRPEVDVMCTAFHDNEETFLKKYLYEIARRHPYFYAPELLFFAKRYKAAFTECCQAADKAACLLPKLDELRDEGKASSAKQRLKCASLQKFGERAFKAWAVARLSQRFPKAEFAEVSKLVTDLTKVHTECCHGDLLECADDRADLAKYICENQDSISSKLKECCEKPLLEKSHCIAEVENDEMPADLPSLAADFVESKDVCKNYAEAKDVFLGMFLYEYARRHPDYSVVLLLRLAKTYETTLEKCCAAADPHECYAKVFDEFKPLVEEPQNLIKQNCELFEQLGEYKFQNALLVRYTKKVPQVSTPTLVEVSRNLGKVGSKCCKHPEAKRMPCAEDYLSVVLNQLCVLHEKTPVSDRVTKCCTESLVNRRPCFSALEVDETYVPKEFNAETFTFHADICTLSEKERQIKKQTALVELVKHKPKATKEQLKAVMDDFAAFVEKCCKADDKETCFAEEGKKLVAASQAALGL

T1 sequence (P02769 25-607): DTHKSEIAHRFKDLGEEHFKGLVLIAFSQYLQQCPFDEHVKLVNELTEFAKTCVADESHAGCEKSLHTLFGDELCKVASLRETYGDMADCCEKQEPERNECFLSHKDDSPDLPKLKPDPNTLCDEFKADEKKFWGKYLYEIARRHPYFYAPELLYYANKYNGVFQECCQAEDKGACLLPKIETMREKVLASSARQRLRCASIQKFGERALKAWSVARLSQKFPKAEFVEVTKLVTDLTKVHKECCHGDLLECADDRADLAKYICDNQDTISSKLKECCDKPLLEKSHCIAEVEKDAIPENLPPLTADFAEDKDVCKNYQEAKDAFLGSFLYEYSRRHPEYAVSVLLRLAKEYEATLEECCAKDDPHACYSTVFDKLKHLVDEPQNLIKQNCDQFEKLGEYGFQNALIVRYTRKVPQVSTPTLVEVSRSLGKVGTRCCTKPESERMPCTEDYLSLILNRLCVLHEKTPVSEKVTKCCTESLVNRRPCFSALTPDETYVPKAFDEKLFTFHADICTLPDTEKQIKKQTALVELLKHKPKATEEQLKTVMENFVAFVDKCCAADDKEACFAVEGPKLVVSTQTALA

Compound `COC(=O)CCNC(=O)c1ccc2cc(N(CC(=O)OC(C)(C)C)c3ccc(OC)cc3)ccc2c1` [compound 5, methyl 3-[(6-{[2-(tert-butoxy)-2-oxoethyl] (4-methoxyphenyl)amino}naphthalen-2-yl)formamido]propanoate] has a Kd [1] of 1930 nM and a Kd [2] of 2050 nM.
